Data set [1] has as its system Soybean seeds of the variety Williams 82. Particulars: with ILEVO 0.15 mg ai per seed, versus ILEVO alone, CaCl2•2 H2O 10.000 mM, about 10 days after planting. Here is the method:
All solutions were pH adjusted to pH 5.6-6.2. In addition, a seed treatment was prepared with a cobalt and molybdenum combination (“CoMo”) containing the cobalt chloride and sodium molybdate applied at the respective doses shown in Table 9. A commercial zinc solution was also applied as a seed treatment. “Macro”, “Micro” and “Complete” nutrient solution cocktails which combined all the respective nutrients from Table 9 into one nutrient solution were included as seed treatments.
About 10 days after planting the treated seeds, the emerging seedlings were analyzed to determine their average plant height and average unifoliate leaf area.

Data set [2] shares this test system. Particulars: for Average Area (Total Leaf Area) / Average Height (Plant Height): 15 Days after Planting. Here is the method: Plant heights and total leaf area were determined 15 days after planting. The total leaf area was calculated by adding the unifoliate leaf area and the trifoliate leaf area of a soybean plant. Between 11 and 15 replicates were evaluated for each measurement. Average values along with their standard errors are reported.

The test system is the same in data set [3]. Put plainly: Example A: soybean seed treatment with antioxidants, with or without Fluopyram; cotyledon total and healthy area. As to conditions: for Average Cotyledon Area (mm^2) Growth Promotion with Antioxidant / Increase in Healthy Area % Difference: antioxidant at effective concentration versus no antioxidant; for Average Cotyledon Area / Average % Healthy Area / Average Healthy Area: after 10 days.

Setting [4] is: ILEVO 0.15 mg ai per seed + 10 mM CaCl2•2 H2O.
Setting [5] is: ILEVO 0.15 mg ai per seed + 75 mM CaCl2•2 H2O.
The mark [6] stands for this setting: ILEVO 0.15 mg ai per seed + 150 mM CaCl2•2 H2O.
The mark [7] stands for this setting: calcium chloride added to ILEVO seed treatment versus ILEVO alone, effect increased at higher concentrations.
Where [8] appears, read: two additional soybean varieties besides Williams 82.
The mark [9] stands for this setting: UTC seeds (no FLU) plus antioxidant at effective concentration (Beta-Carotene 200 μM, Co-enzyme Q10 3 μM, Meso-Zeaxanthin 250 ppm, L-ascorbic acid 800 ppm, alpha tocopherol phosphate disodium 100 ppm).
[10] abbreviates: UTC seeds (no FLU) plus antioxidant at effective concentration (as in E7).
[11] abbreviates: seeds treated with FLU 0.15 mg ai/seed plus antioxidant at effective concentration (200 μM, 3 μM, 250 ppm, 800 ppm, 100 ppm as in E4).
The mark [12] stands for this setting: seeds treated with FLU 0.15 mg ai/seed plus antioxidant at effective concentration (Beta-Carotene 200 μM, Co-enzyme Q10 3 μM, Meso-Zeaxanthin 250 ppm, L-ascorbic acid 800 ppm, alpha tocopherol phosphate disodium 100 ppm).
[13] abbreviates: FLU 0.15 mg ai/seed alone (antioxidant 0 μM / 0 ppm; control of the respective antioxidant series).

Where “and” joins values, the source holds several entries; their conditions need not be identical. Equal entries are not always repeated. Where two headings read alike, the source gives them in different places.

As to `[Ca+2].[Cl-].[Cl-]` [CaCl2•2 H2O, calcium chloride], in data set [1] (FIG. 1), the average plant height result is recorded as “significantly increased”. Moreover, in data set [1] (FIG. 2), the “average unifoliate leaf area” value is recorded as “significantly increased”. In data set [2] (setting [4]), the “Average Area (Total Leaf Area)” value worked out at 46.70 cm^2 and the “Average Height (Plant Height)” value was 12.93 cm. In data set [2] (setting [5]), the “Average Area (Total Leaf Area)” value is given as 53.89 cm^2 and the “Average Height (Plant Height)” value was found to be 13.69 cm. In data set [2] (setting [6]), the “Average Area (Total Leaf Area)” value turned out to be 53.03 cm^2 and the “Average Height (Plant Height)” value came to 14.31 cm. In data set [2] (setting [7]), the “height of the soybean plants” value is on record as “significantly increased” and the “total leaf area of the soybean plants” value is “significantly increased”. For the same molecule, in data set [2] (setting [8]), the “effect on height of soybean plants treated with ILEVO” value is reported as “positive effect” and the “effect on leaf area of soybean plants treated with ILEVO” value was “positive effect”.

With `COC1=C(OC)C(=O)C(C/C=C(\C)CC/C=C(\C)CC/C=C(\C)CC/C=C(\C)CC/C=C(\C)CC/C=C(\C)CC/C=C(\C)CC/C=C(\C)CC/C=C(\C)CCC=C(C)C)=C(C)C1=O` [Co-enzyme Q10], the results for the “Average Cotyledon Area (mm^2) Growth Promotion with Antioxidant” value in data set [3] (FLU-treated seeds) and in data set [3] (UTC seeds (no FLU)) were 19.49 mm^2 and 47.57 mm^2, respectively. For the same molecule, the “Increase in Healthy Area % Difference” value in data set [3] (FLU-treated seeds) was found to be 10.25%; in data set [3] (UTC seeds (no FLU)), 0.00%. Also, the entries for the “Average Cotyledon Area” value in data set [3] (setting [9]) and in data set [3] (setting [12]) were 416.55 mm^2 and 312.31 mm^2, respectively. Moreover, the results for the “Average % Healthy Area” value in data set [3] (setting [10]) and in data set [3] (setting [11]) were 100.00% and 76.54%, respectively. Moreover, the “Average Healthy Area” value amounted to 416.55 mm^2 in data set [3] (setting [10]) and 240.72 mm^2 in data set [3] (setting [11]).

For `O=C(NCCc1ncc(C(F)(F)F)cc1Cl)c1ccccc1C(F)(F)F` [FLU, Fluopyram, reference compound], in data set [3] (setting [13]), the “Average % Healthy Area” value is 59.63% and 67.93% and 68.20% and 60.08% and 66.29%; the “Average Cotyledon Area” value was 252.85 mm^2 and 307.56 mm^2 and 290.71 mm^2 and 237.73 mm^2 and 292.81 mm^2; the “Average Healthy Area” value is 153.20 mm^2 and 210.37 mm^2 and 199.35 mm^2 and 142.71 mm^2 and 195.10 mm^2.

As for Meso-Zeaxanthin, the figures for the “Average Cotyledon Area (mm^2) Growth Promotion with Antioxidant” value in data set [3] (FLU-treated seeds) and in data set [3] (UTC seeds (no FLU)) were 78.23 mm^2 and 30.66 mm^2, respectively. Further, the “Increase in Healthy Area % Difference” value in data set [3] (FLU-treated seeds) was determined as 10.05%; in data set [3] (UTC seeds (no FLU)), 4.59%. Moreover, the “Average Cotyledon Area” value in data set [3] (setting [9]) is reported as 350.59 mm^2; in data set [3] (setting [12]), 331.07 mm^2. Besides, the figures for the “Average % Healthy Area” value in data set [3] (setting [10]) and in data set [3] (setting [11]) were 99.66% and 69.68%, respectively. Also, the “Average Healthy Area” value in data set [3] (setting [10]) stood at 349.18 mm^2; in data set [3] (setting [11]) it was 230.46 mm^2.

The values above are taken from patent US20200163332A1, “METHOD OF IMPROVING CROP SAFETY” (Bayer CropScience LP, priority 2017, published 2020).
